{"source": "patent US12116421B2", "about": "“Peptide-based Dopa containing adhesive gels” (KING ABDULLAH UNIVERSITY OF SCIENCE AND TECHNOLOGY, priority 2020, dated 2024)", "key": {"[1]": {"assay": "AFM topography of peptide nanofibres", "format": "physicochemical", "settings": "13 mM in MilliQ water", "protocol": "In one embodiment, DoIIZK and IIZKDo form nice long and twisted fibers whereas, but IIZDoK peptide performs scarcely even at the concentration of 10 mg/mL. The photos in FIG. 11 has a scalebar of 200 nm, while the photos in FIG. 12 has a scalebar of 400 nm. The peptides shown in FIGS. 11 and 12 are dissolved in MilliQ® water at the concentration of 13 mM. According to the AFM photos in FIGS. 15 and 16 and 3D plot shown in FIG. 11, peptides DoIIZK, IIZDoK and IIZKDo show the following structural properties: • DoIIZK: helical pitch of 24.75±1.46 nm; maximum diametre 1.01±0.14 nm; minimum diametre: 0.66±0.09 nm. • IIZDoK: helical pitch of 8.63±0.49 nm; maximum diametre 1.66±0.19 nm; minimum diametre: 1.16±0.17 nm. • IIZKDo: helical pitch of 24.21±1.24 nm; maximum diametre 3.87±0.28 nm; minimum diametre: 3.09±0.16 nm.\n(§1) AFM topography measurements were performed on a Dimension Icon SPM (Bruker®). The samples were prepared as follows: peptides were dissolved at 13 mM concentration in MilliQ® water; after 30 minutes, 20 μl of these solutions were dropped on freshly cleaved mica sheets and immediately dried with an N2 stream. Measurements were immediately performed in tapping mode in air by the use of an AFM probe AC_240TS_R3 (Olympus®) with nominal free oscillation at roughly 70 kHz and a nominal spring constant of 2 N/m. The probe was calibrated by contact-free method.^54 Free oscillation amplitude was set at 200 mV with a 5% damping during tapping mode measurement. AFM adhesion measurements were performed on a JPK Nanowizard™ III mounted on Olympus® IX-81 inverted optical microscope. A mica sheet was glued one day before the experiment with double component epoxy glue to a glass slide and enclosed in a plastic o-ring provided by the JPK company for liquid measurements. Each peptide was dissolved in MilliQ® water at a concentration of 13 mM and mixed gently. Starting with the measurement in MilliQ® water, 50 μL of the solution were dropped on the freshly cleaved mica sheet within 5 minutes from the preparation of the solution and let equilibrate for 10 minutes. After, the excess solution was removed by pipetting and discarded. Then 1 mL of MilliQ® water was added gently from the side and after 5 minutes, the sample was rinsed 3 times by additional 1 mL MilliQ® water. Finally, the sample was measured by AFM force spectroscopy (Quantitative imaging mode) with additional 1 mL MilliQ® water. The MilliQ® water was exchanged after the measurement alternatively with a water solution containing 137 mM NaCl or 10 mM Phosphate ions (a combination of Na2HPO4·7H2O and NaH2PO4·H2O to reach pH 7.4). After performing the force spectroscopy map in these two different solutions, eventually, the liquid was exchanged with 1×PBS pH 7.4. To verify the presence of eventual fibers, after the measurement, the excess solution was removed by pipetting and discarded. The sample was then rinsed two times with 1 mL MilliQ® water and dried overnight in a vacuum chamber. The topography AFM imaging was performed using AC-240TS_R3 AFM probes in tapping mode in the JPK AFM."}, "[2]": {"assay": "AFM force spectroscopy adhesion measurement in liquid", "format": "physicochemical", "settings": "for reduction of adhesion force by addition of NaCl: NaCl versus MilliQ water", "protocol": "In one embodiment, the peptides were dissolved in the proper solution at a concentration of 10 mg/mL. The peptide solutions were spotted on a freshly cleaved mica sheet and the measurement was performed in liquid.\nIn one embodiment, the adhesion properties of the Dopa peptides are influenced by the construct lysine-Dopa and by the position of the catechol moiety in the peptide sequence, as indicated by the AFM force spectroscopy results in liquid. In a typical force spectroscopy curve the probe is several times approached to the surface and retracted and for every cycle of retraction the maximum force of adhesion is recorded. The incorporation of a catechol moiety near a lysine would enhance adhesion to negatively charged surfaces. FIG. 28 illustrates the effect of lysine on adhesion to negatively charged surfaces. Therefore, probes and substrates that were manifesting negative charges on their surfaces, such as the silicon probe and the freshly cleaved mica substrate, are used in the AFM spectroscopy. The setup of probe and substrate is illustrated in FIG. 29.\nThe peptides dissolved in the proper solution at 13 mM concentration each, were spotted on a freshly cleaved mica sheet and the measurement was performed in liquid. Several force curves were recorded for different buffers. […] In FIG. 30, the inset image represents the maximum extension of each peptide dissolved in water, when manually pulled between two glass slides. Also in FIG. 30, the approach part of the curve contains the important information defined as “jump to contact”, while the retract part of the F-D curve contains the adhesion force value. […] Two controls were also introduced: namely the original peptide IIZK, and an alternative peptide IIFK. To better understand the influence of Dopa on the adhesion properties of the peptide, the original short peptide IIZK would make a perfect negative control. We also introduced as a control the IIFK peptide in order to understand the effect of IIZK itself on adhesion. In FIG. 32, statistical significance expressed as p<0.01.\nas §1, with “To verify the presence of eventual fibers, after the measurement, the excess solution was removed by pipetting and discarded. The sample was then rinsed two times with 1 mL MilliQ® water and dried overnight in a vacuum chamber. The topography AFM imaging was performed using AC-240TS_R3 AFM probes in tapping mode in the JPK AFM.” left out"}}, "note": "Where a SMILES comes first, the peptide text is derived from it. [ ]: non-standard residue; d: D form. Dopa = N[C@@H](Cc1ccc(O)c(O)c1)C(=O)O; Cha = N[C@@H](CC1CCCCC1)C(=O)O"}
{"smiles": "CC[C@H](C)[C@H](NC(=O)[C@H](Cc1ccc(O)c(O)c1)NC(C)=O)C(=O)N[C@H](C(=O)N[C@@H](CC1CCCCC1)C(=O)N[C@@H](CCCCN)C(N)=O)[C@@H](C)CC", "note": "[DoIIZK, Ac-Dopa-Ile-Ile-Cha-Lys-NH2] (Ac-[Dopa]II[Cha]K-NH2)", "values": [{"measurement": "helical pitch", "setting": "[1]", "value": "24.75±1.46", "unit": "nm"}, {"measurement": "maximum diametre", "setting": "[1]", "value": "1.01±0.14", "unit": "nm"}, {"measurement": "minimum diametre", "setting": "[1]", "value": "0.66±0.09", "unit": "nm"}, {"measurement": "Force of adhesion (Geometric Mean)", "setting": "[2]; 10 mM PO4, peptide 13 mM", "value": 34.81, "unit": "PN"}, {"measurement": "Force of adhesion (Geometric Mean)", "setting": "[2]; 137 mM NaCl, peptide 13 mM", "value": 64.64, "unit": "PN"}, {"measurement": "Force of adhesion (Geometric Mean)", "setting": "[2]; 1×PBS, peptide 13 mM", "value": 13.36, "unit": "PN"}, {"measurement": "Force of adhesion (Geometric Mean)", "setting": "[2]; MilliQ water, peptide 13 mM", "value": 112.7, "unit": "PN"}, {"measurement": "reduction of adhesion force by addition of NaCl", "setting": "[2]", "value": "about 50%"}]}
{"smiles": "CC[C@H](C)[C@H](NC(C)=O)C(=O)N[C@H](C(=O)N[C@@H](CC1CCCCC1)C(=O)N[C@@H](Cc1ccc(O)c(O)c1)C(=O)N[C@@H](CCCCN)C(N)=O)[C@@H](C)CC", "note": "[IIZDoK, Ac-Ile-Ile-Cha-Dopa-Lys-NH2] (Ac-II[Cha][Dopa]K-NH2)", "values": [{"measurement": "helical pitch", "setting": "[1]", "value": "8.63±0.49", "unit": "nm"}, {"measurement": "maximum diametre", "setting": "[1]", "value": "1.66±0.19", "unit": "nm"}, {"measurement": "minimum diametre", "setting": "[1]", "value": "1.16±0.17", "unit": "nm"}, {"measurement": "Force of adhesion (Geometric Mean)", "setting": "[2]; 10 mM PO4, peptide 13 mM", "value": 22.47, "unit": "PN"}, {"measurement": "Force of adhesion (Geometric Mean)", "setting": "[2]; 137 mM NaCl, peptide 13 mM", "value": 44.01, "unit": "PN"}, {"measurement": "Force of adhesion (Geometric Mean)", "setting": "[2]; 1×PBS, peptide 13 mM", "value": 23.33, "unit": "PN"}, {"measurement": "Force of adhesion (Geometric Mean)", "setting": "[2]; MilliQ water, peptide 13 mM", "value": 72, "unit": "PN"}, {"measurement": "reduction of adhesion force by addition of NaCl", "setting": "[2]", "value": "about 50%"}]}
{"smiles": "CC[C@H](C)[C@H](NC(C)=O)C(=O)N[C@H](C(=O)N[C@@H](CC1CCCCC1)C(=O)N[C@@H](CCCCN)C(=O)N[C@@H](Cc1ccc(O)c(O)c1)C(N)=O)[C@@H](C)CC", "note": "[IIZKDo, Ac-Ile-Ile-Cha-Lys-Dopa-NH2] (Ac-II[Cha]K[Dopa]-NH2)", "values": [{"measurement": "helical pitch", "setting": "[1]", "value": "24.21±1.24", "unit": "nm"}, {"measurement": "maximum diametre", "setting": "[1]", "value": "3.87±0.28", "unit": "nm"}, {"measurement": "minimum diametre", "setting": "[1]", "value": "3.09±0.16", "unit": "nm"}, {"measurement": "Force of adhesion (Geometric Mean)", "setting": "[2]; 10 mM PO4, peptide 13 mM", "value": 13.89, "unit": "PN"}, {"measurement": "Force of adhesion (Geometric Mean)", "setting": "[2]; 137 mM NaCl, peptide 13 mM", "value": 76.89, "unit": "PN"}, {"measurement": "Force of adhesion (Geometric Mean)", "setting": "[2]; 1×PBS, peptide 13 mM", "value": 29.5645, "unit": "PN"}, {"measurement": "Force of adhesion (Geometric Mean)", "setting": "[2]; MilliQ water, peptide 13 mM", "value": 73.31, "unit": "PN"}, {"measurement": "reduction of adhesion force by addition of NaCl", "setting": "[2]", "value": "did not significantly impact"}]}
